Laboratory results from ChEMBL document CHEMBL6083208, “Integrating amino acids into Bcr-Abl inhibitors: design, synthesis, biological evaluation, and in silico studies” (RSC Med Chem, 2024).
Blank lines part the entries; values can stand above or below the molecule they belong to. Active and inactive are the calls of the source. The rule behind the calls is not given here.

Tests used:
Bcr/Abl fusion protein = Bcr/Abl fusion protein (Homo sapiens, UniProt P00519); assay: Inhibition of wild type Bcr-Abl (unknown origin) using Abltide as substrate incubated for 1 hr by luminescence based ADP-glo assay; format: protein assay
Bcr/Abl fusion protein, sequence (P00519 whole entry, the tested form may be a part): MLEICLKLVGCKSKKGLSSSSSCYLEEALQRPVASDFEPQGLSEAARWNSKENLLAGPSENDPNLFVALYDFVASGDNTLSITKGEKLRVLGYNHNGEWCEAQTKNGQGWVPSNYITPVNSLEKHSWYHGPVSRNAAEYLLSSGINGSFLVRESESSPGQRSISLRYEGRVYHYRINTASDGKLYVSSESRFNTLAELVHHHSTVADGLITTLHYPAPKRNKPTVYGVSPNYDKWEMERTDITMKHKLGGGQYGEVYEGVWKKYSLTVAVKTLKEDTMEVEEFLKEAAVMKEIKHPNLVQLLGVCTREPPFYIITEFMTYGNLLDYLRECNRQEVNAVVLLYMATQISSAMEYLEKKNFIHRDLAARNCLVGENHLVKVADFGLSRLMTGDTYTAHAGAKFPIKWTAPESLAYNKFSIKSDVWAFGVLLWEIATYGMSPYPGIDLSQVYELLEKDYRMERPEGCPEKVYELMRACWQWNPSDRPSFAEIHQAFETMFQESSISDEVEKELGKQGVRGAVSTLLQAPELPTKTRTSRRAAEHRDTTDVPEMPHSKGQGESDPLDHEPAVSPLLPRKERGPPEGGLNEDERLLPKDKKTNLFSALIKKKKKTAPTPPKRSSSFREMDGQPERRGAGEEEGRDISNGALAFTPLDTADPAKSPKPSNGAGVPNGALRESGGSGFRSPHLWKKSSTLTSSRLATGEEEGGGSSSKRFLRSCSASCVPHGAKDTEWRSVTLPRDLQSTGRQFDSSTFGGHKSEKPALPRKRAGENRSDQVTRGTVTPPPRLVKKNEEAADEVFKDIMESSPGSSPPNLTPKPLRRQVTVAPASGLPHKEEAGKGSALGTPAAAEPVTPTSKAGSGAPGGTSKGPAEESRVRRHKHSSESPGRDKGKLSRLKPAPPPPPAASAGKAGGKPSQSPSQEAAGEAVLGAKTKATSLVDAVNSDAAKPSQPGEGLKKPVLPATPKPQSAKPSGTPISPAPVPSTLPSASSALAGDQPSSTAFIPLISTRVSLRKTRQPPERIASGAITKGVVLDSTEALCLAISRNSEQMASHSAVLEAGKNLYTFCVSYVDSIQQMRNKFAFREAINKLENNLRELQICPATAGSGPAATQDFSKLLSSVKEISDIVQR
Bcr/Abl fusion protein, sequence (P11274 whole entry, further chain, the tested form may be a part): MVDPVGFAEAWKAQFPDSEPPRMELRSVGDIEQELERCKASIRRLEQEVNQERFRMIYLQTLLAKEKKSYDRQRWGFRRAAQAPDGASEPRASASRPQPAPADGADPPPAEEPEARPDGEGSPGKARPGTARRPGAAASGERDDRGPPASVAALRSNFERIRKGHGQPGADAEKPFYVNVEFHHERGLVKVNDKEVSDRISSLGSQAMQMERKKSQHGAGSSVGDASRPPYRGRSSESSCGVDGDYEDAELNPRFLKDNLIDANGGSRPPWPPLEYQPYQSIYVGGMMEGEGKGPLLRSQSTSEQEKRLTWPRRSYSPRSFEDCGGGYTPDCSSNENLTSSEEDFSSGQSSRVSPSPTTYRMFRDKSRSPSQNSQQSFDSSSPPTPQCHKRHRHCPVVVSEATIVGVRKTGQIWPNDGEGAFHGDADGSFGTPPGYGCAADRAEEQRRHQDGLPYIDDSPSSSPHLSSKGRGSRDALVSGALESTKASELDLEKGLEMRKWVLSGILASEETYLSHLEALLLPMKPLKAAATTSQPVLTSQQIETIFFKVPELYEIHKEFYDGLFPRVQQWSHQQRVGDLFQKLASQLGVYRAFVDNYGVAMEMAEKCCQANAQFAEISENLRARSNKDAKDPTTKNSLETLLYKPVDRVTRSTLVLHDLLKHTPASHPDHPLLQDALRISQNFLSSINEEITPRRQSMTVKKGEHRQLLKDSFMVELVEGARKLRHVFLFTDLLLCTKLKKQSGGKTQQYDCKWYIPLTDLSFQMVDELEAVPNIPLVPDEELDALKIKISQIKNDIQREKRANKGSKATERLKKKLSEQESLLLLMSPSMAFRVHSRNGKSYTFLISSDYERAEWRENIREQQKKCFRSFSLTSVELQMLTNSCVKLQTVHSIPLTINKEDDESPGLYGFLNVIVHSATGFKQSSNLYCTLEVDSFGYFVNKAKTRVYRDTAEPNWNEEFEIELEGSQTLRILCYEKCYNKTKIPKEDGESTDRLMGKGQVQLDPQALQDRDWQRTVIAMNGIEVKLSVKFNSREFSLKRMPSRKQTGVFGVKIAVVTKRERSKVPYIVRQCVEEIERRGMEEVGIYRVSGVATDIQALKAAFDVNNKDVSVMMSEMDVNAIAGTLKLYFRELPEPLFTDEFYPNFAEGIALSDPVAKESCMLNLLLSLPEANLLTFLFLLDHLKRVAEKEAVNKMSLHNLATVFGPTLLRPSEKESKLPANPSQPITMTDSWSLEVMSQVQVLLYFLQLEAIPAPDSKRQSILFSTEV

[1] = Inhibition of Bcr-Abl T315Ialpha mutant (unknown origin) using Abltide as substrate incubated for 1 hr by luminescence based ADP-glo assay; parameters: species or system Homo sapiens
BaF3 [2] = assay: Antiproliferative activity against mouse BaF3 cells harbouring Bcr-Abl T315I assessed of cell viability at 30 uM incubated for 72 hrs by Celltiter-glo luminescent cell viability assay relative to control; format: functional
BaF3 [3] = assay: Antiproliferative activity against mouse BaF3 cells harbouring Bcr-Abl T315I assessed of cell viability at 10 uM incubated for 72 hrs by Celltiter-glo luminescent cell viability assay relative to control; format: functional
BaF3 [4] = assay: Antiproliferative activity against mouse BaF3 cells harbouring Bcr-Abl T315I assessed of cell viability at 2 uM incubated for 72 hrs by Celltiter-glo luminescent cell viability assay relative to control; format: functional
HEK293 = assay: Antiproliferative activity against HEK293 cells after 48 hrs by MTT assay; format: toxicity, cell-based; parameters: concentration or dose not given beside the values; conditions: human, hek293, 48 h
THP-1 = assay: Antiproliferative activity against human THP-1 cells after 48 hrs by MTT assay; format: functional; parameters: concentration or dose not given beside the values
K562 [5] = assay: Induction of apoptosis in human K562 cells assessed as viable cells at 1 uM measured after 48 hrs by annexin-V/FITC and propidium iodide staining double based flow cytometry analysis (reference value: 87.47%); format: functional; conditions: read-out: Activity
K562 [6] = assay: Induction of apoptosis in human K562 cells assessed as viable cells at 10 uM measured after 48 hrs by annexin-V/FITC and propidium iodide double staining based flow cytometry analysis (reference value: 87.47%); format: functional; conditions: read-out: Activity
K562 [7] = assay: Induction of apoptosis in human K562 cells assessed as viable cells at 20 uM measured after 48 hrs by annexin-V/FITC and propidium iodide double staining based flow cytometry analysis (reference value: 87.47%); format: functional; conditions: read-out: Activity
K562 [8] = assay: Induction of apoptosis in human K562 cells assessed as early apoptotic cells at 1 uM measured after 48 hrs by annexin-V/FITC and propidium iodide double staining based flow cytometry analysis (reference value: 2.16%); format: functional
K562 [9] = assay: Induction of apoptosis in human K562 cells assessed as early apoptotic cells at 10 uM measured after 48 hrs by annexin-V/FITC and propidium iodide double staining based flow cytometry analysis (reference value: 2.16%); format: functional
K562 [10] = assay: Induction of apoptosis in human K562 cells assessed as early apoptotic cells at 20 uM measured after 48 hrs by annexin-V/FITC and propidium iodide double staining based flow cytometry analysis (reference value: 2.16%); format: functional
K562 [11] = assay: Induction of apoptosis in human K562 cells assessed as late apoptotic cells at 1 uM measured after 48 hrs by annexin-V/FITC and propidium iodide double staining based flow cytometry analysis (reference value: 10.34%); format: functional
K562 [12] = assay: Induction of apoptosis in human K562 cells assessed as late apoptotic cells at 10 uM measured after 48 hrs by annexin-V/FITC and propidium iodide double staining based flow cytometry analysis (reference value: 10.34%); format: functional
K562 [13] = assay: Induction of apoptosis in human K562 cells assessed as late apoptotic cells at 20 uM measured after 48 hrs by annexin-V/FITC and propidium iodide double staining based flow cytometry analysis (reference value: 10.34%); format: functional
K562 [14] = assay: Induction of apoptosis in human K562 cells assessed as necrotic cells at 1 uM measured after 48 hrs by annexin-V/FITC and propidium iodide double staining based flow cytometry analysis (reference value: 0.03%); format: functional
K562 [15] = assay: Induction of apoptosis in human K562 cells assessed as necrotic cells at 10 uM measured after 48 hrs by annexin-V/FITC and propidium iodide double staining based flow cytometry analysis (reference value: 0.03%); format: functional
K562 [16] = assay: Induction of apoptosis in human K562 cells assessed as necrotic cells at 20 uM measured after 48 hrs by annexin-V/FITC and propidium iodide double staining based flow cytometry analysis (reference value: 0.03%); format: functional
K562 [17] = assay: Induction of cell cycle arrest in human K562 cells assessed as increase in accumulation of cells at G0/G1 phase measured after 48 hrs by PI staining based flow cytometry analysis; format: functional; conditions: dose 1-20 µM
[18] = biological target: T1, Bcr/Abl fusion protein (Homo sapiens) (UniProt P00519+P11274); assay: Inhibition of wild type BCR-ABL in human K562 cells assessed as inhibition of Bcr-Abl phosphorylation level at high concentration measured after 48 hrs by Western blot analysis; format: cell-based
T1 sequence (P00519 whole entry, looked up, the tested form may be a part): as the sequence (P00519 whole entry, the tested form may be a part) above
T1 sequence (P11274 whole entry, looked up, the tested form may be a part): as the sequence (P11274 whole entry, further chain, the tested form may be a part) above

[19] = biological target: T1, Bcr/Abl fusion protein (Homo sapiens); assay: Inhibition of wild type BCR-ABL in human K562 cells assessed as inhibition of STAT5 phosphorylation level at high concentration measured after 48 hrs by Western blot analysis; format: cell-based
[20] = biological target: T1, Bcr/Abl fusion protein (Homo sapiens); assay: Inhibition of wild type BCR-ABL in human K562 cells assessed as inhibition of Bcr-Abl phosphorylation level at 20 uM measured after 48 hrs by Western blot analysis; format: cell-based
[21] = biological target: T1, Bcr/Abl fusion protein (Homo sapiens); assay: Inhibition of wild type BCR-ABL in human K562 cells assessed as inhibition of STAT5 phosphorylation level at 20 uM measured after 48 hrs by Western blot analysis; format: cell-based
K562 [22] = assay: cells; conditions: Homo sapiens, K562, 48 h
K562 [23] = assay: Induction of apoptosis in human K562 cells assessed as viable cells at 1 uM measured after 48 hrs by annexin-V/FITC and propidium iodide double staining based flow cytometry analysis (reference value: 92.67%); format: functional; conditions: read-out: Activity
K562 [24] = assay: Induction of apoptosis in human K562 cells assessed as viable cells at 10 uM measured after 48 hrs by annexin-V/FITC and propidium iodide double staining based flow cytometry analysis (reference value: 92.67%); format: functional; conditions: read-out: Activity
K562 [25] = assay: Induction of apoptosis in human K562 cells assessed as viable cells at 15 uM measured after 48 hrs by annexin-V/FITC and propidium iodide double staining based flow cytometry analysis (reference value: 92.67%); format: functional; conditions: read-out: Activity
K562 [26] = assay: Induction of apoptosis in human K562 cells assessed as early apoptotic cells at 1 uM measured after 48 hrs by annexin-V/FITC and propidium iodide double staining based flow cytometry analysis (reference value: 3.57%); format: functional
K562 [27] = assay: Induction of apoptosis in human K562 cells assessed as early apoptotic cells at 10 uM measured after 48 hrs by annexin-V/FITC and propidium iodide double staining based flow cytometry analysis (reference value: 3.57%); format: functional
K562 [28] = assay: Induction of apoptosis in human K562 cells assessed as early apoptotic cells at 15 uM measured after 48 hrs by annexin-V/FITC and propidium iodide double staining based flow cytometry analysis (reference value: 3.57%); format: functional
K562 [29] = assay: Induction of apoptosis in human K562 cells assessed as late apoptotic cells at 1 uM measured after 48 hrs by annexin-V/FITC and propidium iodide double staining based flow cytometry analysis (reference value: 2.72%); format: functional
K562 [30] = assay: Induction of apoptosis in human K562 cells assessed as late apoptotic cells at 10 uM measured after 48 hrs by annexin-V/FITC and propidium iodide double staining based flow cytometry analysis (reference value: 2.72%); format: functional
K562 [31] = assay: Induction of apoptosis in human K562 cells assessed as late apoptotic cells at 15 uM measured after 48 hrs by annexin-V/FITC and propidium iodide double staining based flow cytometry analysis (reference value: 2.72%); format: functional
K562 [32] = assay: Induction of apoptosis in human K562 cells assessed as necrotic cells at 1 uM measured after 48 hrs by annexin-V/FITC and propidium iodide double staining based flow cytometry analysis (reference value: 1.05%); format: functional
K562 [33] = assay: Induction of apoptosis in human K562 cells assessed as necrotic cells at 10 uM measured after 48 hrs by annexin-V/FITC and propidium iodide double staining based flow cytometry analysis (reference value: 1.05%); format: functional
K562 [34] = assay: Induction of apoptosis in human K562 cells assessed as necrotic cells at 15 uM measured after 48 hrs by annexin-V/FITC and propidium iodide double staining based flow cytometry analysis (reference value: 1.05%); format: functional
K562 [35] = assay: Induction of cell cycle arrest in human K562 cells assessed as reduction in accumulation of cells at S phase at 1 to 20 uM measured after 48 hrs by PI staining based flow cytometry analysis; format: functional; conditions: dose 1-20 µM
K562 [36] = assay: Induction of cell cycle arrest in human K562 cells assessed as increase in accumulation of cells at G0/G1 phase at 1 to 20 uM measured after 48 hrs by PI staining based flow cytometry analysis; format: functional; conditions: dose 1-20 µM
K562 [37] = assay: Induction of cell cycle arrest in human K562 cells assessed as increase in accumulation of cells at G2/M phase at 1 to 20 uM measured after 48 hrs by PI staining based flow cytometry analysis; format: functional; conditions: dose 1-20 µM
[38] = biological target: T1, Bcr/Abl fusion protein (Homo sapiens); assay: Inhibition of wild type BCR-ABL in human K562 cells assessed as inhibition of Bcr-Abl phosphorylation level at 1 uM measured after 48 hrs by Western blot analysis; format: cell-based
[39] = biological target: T1, Bcr/Abl fusion protein (Homo sapiens); assay: Inhibition of wild type BCR-ABL in human K562 cells assessed as inhibition of STAT5 phosphorylation level measured after 48 hrs by Western blot analysis; format: cell-based; conditions: dose 0.1-15 µM

IC50 (Bcr/Abl fusion protein): 0.231 nM
IC50 [1]: 37.5 nM
inhibition [18]: Active
inhibition [19]: Active
inhibition [20]: Active
inhibition [21]: Active
IC50 (K562 [22]): 0.06 nM
Structure (SMILES): CC(=O)Nc1cc(-c2ccc(C(=O)N[C@@H](COC(C)(C)C)C(=O)Nc3ccc(Cl)c(C(F)(F)F)c3)cc2)ccn1
inhibition at 30 µM (BaF3 [2]): 98.1%
inhibition at 10 µM (BaF3 [3]): 64.1%
inhibition at 2 µM (BaF3 [4]): 7.66%
Activity (HEK293): 95%
Activity (THP-1): 66%
viability at 1 µM (K562 [5]): 73.9%
viability at 10 µM (K562 [6]): 59.4%
viability at 20 µM (K562 [7]): 31.8%
Activity (K562 [8]): 1.37%
Activity (K562 [9]): 1.64%
Activity (K562 [10]): 1.52%
Activity (K562 [11]): 24.67%
Activity (K562 [12]): 38.85%
Activity (K562 [13]): 66.61%
Activity (K562 [14]): 0.07%
Activity (K562 [15]): 0.07%
Activity (K562 [16]): 0.07%
Activity (K562 [17]): Dose-dependent-effect

IC50 (Bcr/Abl fusion protein): 1.44 nM
IC50 [1]: 48 nM
inhibition [38]: Active
inhibition [39]: Dose-dependent-effect
inhibition [20]: Active
inhibition [21]: Active
IC50 (K562 [22]): 0.61 nM
Structure (SMILES): CC(C)(C)[C@H](NC(=O)c1cccc(-c2ccc(NS(C)(=O)=O)nc2)c1)C(=O)Nc1ccc(Cl)c(C(F)(F)F)c1
inhibition at 30 µM (BaF3 [2]): 99.6%
inhibition at 10 µM (BaF3 [3]): 100%
inhibition at 2 µM (BaF3 [4]): 10%
Activity (HEK293): 100%
Activity (THP-1): 65%
viability at 1 µM (K562 [23]): 88.2%
viability at 10 µM (K562 [24]): 82.8%
viability at 15 µM (K562 [25]): 82.5%
Activity (K562 [26]): 7.15%
Activity (K562 [27]): 8.2%
Activity (K562 [28]): 8.69%
Activity (K562 [29]): 4.45%
Activity (K562 [30]): 8.64%
Activity (K562 [31]): 8.48%
Activity (K562 [32]): 0.17%
Activity (K562 [33]): 0.4%
Activity (K562 [34]): 0.28%
Activity (K562 [35]): Active
Activity (K562 [36]): Active
Activity (K562 [37]): Active
